Measurements taken from patent publication US20160046620A1, “METHODS OF CONTROLLING NEONICOTINOID RESISTANT PESTS” (SYNGENTA PARTICIPATIONS AG, priority 2013, published 2016).

Test system: Orius laevigatus
Assay: Safety to beneficial species: test on Orius laevigatus on treated french bean leaf discs
Format: in vivo
Conditions: Orius laevigatus adults; for Corrected Mortality (%) 2 DAI: 2 days after infestation; for Corrected Mortality (%) 4 DAI: 4 days after infestation
Protocol: Phaseolus vulgaris var. Fulvio (french bean) plants were reduced to one leaf. With the leaves held in a horizontal position, a track sprayer was used to treat the plants at a rate corresponding to […]. Once dry, leaf discs were collected from the plants and placed treated side up in petri dishes containing 1% water agar.
A paper triangle was added for shelter, and a suitable amount of Ephestia eggs were added as a food supply. Five (5) Orius laevigatus (predatory bug, Syngenta Bioline) adults were added and the dishes closed with a cotton filter and perforated plastic lid. The dishes were incubated in a climate chamber at 25° C., 75% relative humidity, 16:8 h light/dark regime.
Six replicates were provided for each treatment and concentration level. The number of living and dead Orius laevigatus were counted two and four days after infestation (DAI). At the day two evaluation the food supply was replenished.

C#CCN1[C@@H]2CC[C@H]1C[C@](C#N)(c1cncc(C#N)c1)C2 [Compound 1.074, (1S,3S,5R)-3-(5-cyano-pyridin-3-yl)-8-prop-2-ynyl-8-aza-bicyclo[3.2.1]octane-3-carbonitrile]
Corrected Mortality (%) 2 DAI (50 ppm): 4%
Corrected Mortality (%) 4 DAI (50 ppm): 4%
Corrected Mortality (%) 2 DAI (100 ppm): 0%
Corrected Mortality (%) 4 DAI (100 ppm): 0%
Corrected Mortality (%) 2 DAI (200 ppm): 7%
Corrected Mortality (%) 4 DAI (200 ppm): 39%

O=[N+]([O-])NC1=NCCN1Cc1ccc(Cl)nc1 [Imidacloprid, reference compound]
Corrected Mortality (%) 2 DAI (50 ppm): 11%
Corrected Mortality (%) 4 DAI (50 ppm): 30%
Corrected Mortality (%) 2 DAI (100 ppm): 43%
Corrected Mortality (%) 4 DAI (100 ppm): 65%
Corrected Mortality (%) 2 DAI (200 ppm): 75%
Corrected Mortality (%) 4 DAI (200 ppm): 100%

N#Cc1cncc([C@]2(C#N)C[C@H]3CC[C@@H](C2)N3CC(F)(F)F)c1 [Compound 1.085]
Corrected Mortality (%) 2 DAI (50 ppm): 0%
Corrected Mortality (%) 4 DAI (50 ppm): 9%
Corrected Mortality (%) 2 DAI (100 ppm): 0%
Corrected Mortality (%) 4 DAI (100 ppm): 9%
Corrected Mortality (%) 2 DAI (200 ppm): 0%
Corrected Mortality (%) 4 DAI (200 ppm): 22%
